Reference: US8894989B2, “PARP inhibitor compounds, compositions and methods of use” (Eisai Inc., priority 2007, dated 2014)
Entries after “also recorded” stand apart in the source; their conditions may differ. Read-outs that look alike come from different tables or passages of the source.

Key:
[1] = Bioavailability and brain/plasma levels in mice; details: 30 mg/kg; for Kp / bioavailability: mouse; for Kp: brain; for bioavailability: plasma, po
in vivo [2] = details: rat, po, 30 mg/kg
[3] = Bioavailability and brain/plasma levels in rats; details: 30 mg/kg; for Kp / bioavailability: rat; for Kp: brain; for bioavailability: plasma, po
in vivo [4] = details: mouse, po, 30 mg/kg
BRCA-1 null cells = assay: Tumor growth in mice bearing BRCA-1 deficient tumors; type: in vivo, nu/nu mice
Protocol: 1×10^6 BRCA-1 null cells were injected subcutaneously on the right flank of female nu/nu mice (6-7 weeks old; Harlan Sprague Dawley, Indianapolis Ind.). After approximately 10-14 days, the tumors were approximately 100 mm^3. Mice were sorted into groups so that mean tumor size was similar among groups with minimum standard deviations. Dosing started the day after sorting and tumor volume was monitored three times per week. Tumors were measured in two diameters and volume calculated by […]. Mice were removed from the study when tumors reached 1500 mm^3. “Time to Endpoint” or TTE (the number of days it takes for the tumor to reach 1500 mm^3 or greater) is the endpoint of the study. […] The compound was dosed orally, daily for 28 days from start of the study—day 1. A positive control was utilized, using a well known PARP inhibitor shown to be effective as a stand alone agent in the BRCA models (Bryant et al). The positive control agent was dosed at 25 mg/kg IP qdx5 from start of experiment.

B16 melanoma = assay: Mouse intracranial model of B16 melanoma, combination with TMZ; type: in vivo, mice; details: for survival time: compound 13 10 mg/kg oral + TMZ vs TMZ as single agent (P<0.0001)
[5] = tested on: Human HNSCC cell line JHU012; assay: Enhancement of radiation treatment of head and neck squamous cell carcinoma xenograft; type: in vivo, BALB/c nude mice
Protocol: Human HNSCC cell line JHU012 was used, having been previously genetically characterized and originally derived at the Johns Hopkins University Head and Neck Laboratories from human tumor explants. The cell line was maintained in RPMI 1640 medium with 10% fetal bovine serum and 1% penicillin/streptomycin at 5% CO2 in 37° C. humidified incubators. Experiments were performed on 6-week-old male BALB/c nude mice nu/nu. […] Mice were anesthetized by intraperitoneal injection of […] tribromoethanol. Tumors were established at the right flank by subcutaneous injection of 1×10^7 cells. Fourteen days post cell injection tumors were surgically exposed and measured in 3 dimensions using calipers.

SJGBM2 glioma = details: for efficacy (survival): compound 13 10 mg/kg po + TMZ
[6] = Plasma and tissue pharmacokinetic properties in mice, rats, and dogs (general statements); type: in vivo; details: in words
Protocol: AUC was calculated using the Linear/Log rule.
Selective PARP inhibitors were tested for basic plasma and tissue pharmacokinetic properties in mice, rats, and dogs. After assessment, this family compounds appear to be orally bioavailable in all species and to penetrate brain and tumor tissue.

O=c1[nH]nc2c3c(cccc13)N=C(CN1CC=C(c3ccccc3)CC1)N2 [drawing 97]
Kp [1]: 0.46 | bioavailability (in vivo [2]): 51% | Kp [3]: 0.42 | bioavailability (in vivo [4]): 61%

O=c1[nH]nc2c3c(cccc13)N=C(CN1CCC(c3ccccc3)CC1)N2
B/P in mice (ratio of brain to plasma levels) ([1]; mice): 30-64% | bioavailability [1]: 75% | bioavailability [3]: 50% | B/P in rats (ratio of brain to plasma levels) ([3]; rats): 71-117%

O=c1[nH]nc2c3c(cccc13)N=C(CN1Cc3ccccc3C1)N2 [drawing 99]
Kp [1]: 0.26 | bioavailability [1]: 81% | Kp [3]: 0.36 | bioavailability [3]: 45%

O=c1[nH]nc2c3c(cccc13)N=C(CN1Cc3ccccc3C1)N2 [Compound 37, 8-(1,3-dihydro-isoindol-2-ylmethyl)-2,9-dihydro-1,2,7,9-tetraaza-phenalen-3-one]
tumor growth (BRCA-1 null cells; 100 mg/kg Compound 37 orally, daily for 28 days, vs vehicle controls): effective in significantly retarding tumor growth; also recorded: inhibition of growth | time until tumors start to grow after dosing stopped at day 28 (BRCA-1 null cells; Compound 37 100 mg/kg po daily for 28 days): 10 to 14 days | tumor growth delay compared to positive control (BRCA-1 null cells; Compound 37 100 mg/kg po vs positive control PARP inhibitor 25 mg/kg IP qdx5 (p<0.05)): delayed tumor growth compared to the positive control | mean survival time (B16 melanoma; Compound 37 12.5 mg/kg oral + TMZ vs TMZ as single agent): significantly higher; also recorded: enhance survival | tumor growth inhibition ([5]; 100 mg/kg Compound 37 PO qdx17 alone compared to vehicle controls): no significant effect on tumor growth inhibition | tumor growth inhibition ([5]; Compound 37 30 mg/kg PO + radiation compared to radiation alone): no significant effect on tumor growth inhibition | inhibition of tumor growth ([5]; Compound 37 oral (100 mg/kg) + radiation vs control): significant inhibition of tumor growth | tumor volume at end of experiment ([5]; Group 5: 100 mg/kg Compound 37 PO + Radiation (2 gy/day for 2 days), day 31, control 585.9 mm^3, p<0.01): 209.04 mm^3 | animal survival (SJGBM2 glioma; 10 mg/kg Compound 37 + TMZ five days followed by Compound 37 100 mg/kg for 14 days vs 10 mg/kg Compound 37 + TMZ five days): significantly increased animal survival

O=c1[nH]nc2c3c(cccc13)N=C(CN1CCOCC1)N2 [prior art compound]
oral bioavailability [6]: good bioavailability | ratio of brain to plasma levels [6]: very low

Cn1nnc2c(C(N)=O)ncn2c1=O [TMZ, temozolomide, reference compound]
survival times (B16 melanoma; TMZ treated vs control group): No significant differences in survival times | MTS (median survival time) (SJGBM2 glioma; TMZ alone): 22.5 days | response of SJGBM2 to TMZ (SJGBM2 glioma; TMZ as single agent): ineffective

O=c1[nH]nc2c3c(cccc13)N=C(CN1CCN(c3ccccc3)CC1)N2
Kp [1]: 0.49 | bioavailability [1]: 49% | Kp [3]: 0.4 | bioavailability [3]: 58%

O=c1[nH]nc2c3c(cccc13)N=C(CN1CCOCC1)N2 [drawing 95]
Kp [1]: < 0.05 | bioavailability [1]: 77% | Kp [3]: < 0.05 | bioavailability [3]: 77%

O=c1[nH]nc2c3c(cccc13)N=C(CN1CC=C(c3ccccc3)CC1)N2 [Compound 13, 8-(4-phenyl-3,6-dihydro-2H-pyridin-1-ylmethyl)-2,9-dihydro-1,2,7,9-tetraaza-phenalen-3-one]
survival time (B16 melanoma): enhance survival | survival time (B16 melanoma; listed as compound 13): significantly increased the survival time | MTS (median survival time) (SJGBM2 glioma; compound 13 10 mg/kg po 15 min pre-TMZ, combination with TMZ (P=0.002)): 25 days | efficacy (survival) (SJGBM2 glioma): enhanced survival | efficacy (survival) (SJGBM2 glioma; listed as compound 13): efficacious
